Source: ChEMBL document CHEMBL3045199, “Synthesis of some (E)-6-[2-(furan-2-yl)ethenyl]-1,2,4-triazin-5-ones and their biological evaluation as antitumor agents” (2013)

How the values were obtained:
Assay type in all cases: functional
KM12 = assay: Cytotoxicity against Homo sapiens (human) KM12 cells after 48 hr by SRB assay; conditions: KM12, 48 h, read-out: pGI50 (converted)
DU-145 = assay: Cytotoxicity against Homo sapiens (human) DU145 cells after 48 hr by SRB assay; conditions: DU-145, 48 h, read-out: pGI50 (converted)
786-0 = assay: Cytotoxicity against Homo sapiens (human) 786-0 cells after 48 hr by SRB assay; conditions: 786-0, 48 h, read-out: pGI50 (converted)
HCC 2998 = assay: Cytotoxicity against Homo sapiens (human) HCC2998 cells after 48 hr by SRB assay; conditions: HCC 2998, 48 h, read-out: pGI50 (converted)
HOP-92 = assay: Cytotoxicity against Homo sapiens (human) HOP92 cells after 48 hr by SRB assay; conditions: HOP-92, 48 h, read-out: pGI50 (converted)
OVCAR-5 = assay: Cytotoxicity against Homo sapiens (human) OVCAR5 cells after 48 hr by SRB assay; conditions: OVCAR-5, 48 h, read-out: pGI50 (converted)
BT-549 = assay: Cytotoxicity against Homo sapiens (human) BT549 cells after 48 hr by SRB assay; conditions: BT-549, 48 h, read-out: pGI50 (converted)
NCI-H23 = assay: Cytotoxicity against Homo sapiens (human) NCI-H23 cells after 48 hr by SRB assay; conditions: NCI-H23, 48 h, read-out: pGI50 (converted)
OVCAR-4 = assay: Cytotoxicity against Homo sapiens (human) OVCAR4 cells after 48 hr by SRB assay; conditions: OVCAR-4, 48 h, read-out: pGI50 (converted)
UACC-257 = assay: Cytotoxicity against Homo sapiens (human) UACC257 cells after 48 hr by SRB assay; conditions: UACC-257, 48 h, read-out: pGI50 (converted)
SF-268 = assay: Cytotoxicity against Homo sapiens (human) SF268 cells after 48 hr by SRB assay; conditions: SF-268, 48 h, read-out: pGI50 (converted)
NCI-H460 = assay: Cytotoxicity against Homo sapiens (human) NCI-H460 cells after 48 hr by SRB assay; conditions: NCI-H460, 48 h, read-out: pGI50 (converted)
SF-295 = assay: Cytotoxicity against Homo sapiens (human) SF295 cells after 48 hr by SRB assay; conditions: SF-295, 48 h, read-out: pGI50 (converted)
RXF 393 = assay: Cytotoxicity against Homo sapiens (human) RXF393 cells after 48 hr by SRB assay; conditions: RXF 393, 48 h, read-out: pGI50 (converted)
OVCAR-8 = assay: Cytotoxicity against Homo sapiens (human) OVCAR8 cells after 48 hr by SRB assay; conditions: OVCAR-8, 48 h, read-out: pGI50 (converted)
SF-539 = assay: Cytotoxicity against Homo sapiens (human) SF539 cells after 48 hr by SRB assay; conditions: SF-539, 48 h, read-out: pGI50 (converted)
HT-29 = assay: Cytotoxicity against Homo sapiens (human) HT-29 cells after 48 hr by SRB assay; conditions: HT-29, 48 h, read-out: pGI50 (converted)
MDA-MB-231 = assay: Cytotoxicity against Homo sapiens (human) MDA-MB-231 cells after 48 hr by SRB assay; conditions: MDA-MB-231, 48 h, read-out: pGI50 (converted)
SNB-19 = assay: Cytotoxicity against Homo sapiens (human) SNB19 cells after 48 hr by SRB assay; conditions: SNB-19, 48 h, read-out: pGI50 (converted)
Malme-3M = assay: Cytotoxicity against Homo sapiens (human) MALME-3M cells after 48 hr by SRB assay; conditions: read-out: pGI50 (converted)
SK-OV-3 = assay: Cytotoxicity against Homo sapiens (human) SKOV3 cells after 48 hr by SRB assay; conditions: SK-OV-3, 48 h, read-out: pGI50 (converted)
Hs-578T = assay: Cytotoxicity against Homo sapiens (human) Hs 578T cells after 48 hr by SRB assay
K562 = assay: Cytotoxicity against Homo sapiens (human) K562 cells after 48 hr by SRB assay; conditions: K562, 48 h, read-out: pGI50 (converted)
CAKI-1 = assay: Cytotoxicity against Homo sapiens (human) Caki1 cells after 48 hr by SRB assay; conditions: CAKI-1, 48 h, read-out: pGI50 (converted)
A498 = assay: Cytotoxicity against Homo sapiens (human) A498 cells after 48 hr by SRB assay; conditions: A498, 48 h, read-out: pGI50 (converted)
NCI-H226 = assay: Cytotoxicity against Homo sapiens (human) NCI-H226 cells after 48 hr by SRB assay; conditions: NCI-H226, 48 h, read-out: pGI50 (converted)
PC-3 = assay: Cytotoxicity against Homo sapiens (human) PC3 cells after 48 hr by SRB assay; conditions: PC-3, 48 h, read-out: pGI50 (converted)
EKVX = assay: Cytotoxicity against Homo sapiens (human) EKVX cells after 48 hr by SRB assay; conditions: read-out: pGI50 (converted)
IGROV-1 = assay: Cytotoxicity against Homo sapiens (human) IGROV1 cells after 48 hr by SRB assay; conditions: IGROV-1, 48 h, read-out: pGI50 (converted)
SNB-75 = assay: Cytotoxicity against Homo sapiens (human) SNB75 cells after 48 hr by SRB assay; conditions: SNB-75, 48 h, read-out: pGI50 (converted)
TK-10 = assay: Cytotoxicity against Homo sapiens (human) TK10 cells after 48 hr by SRB assay; conditions: TK-10, 48 h, read-out: pGI50 (converted)
HCT-116 = assay: Cytotoxicity against Homo sapiens (human) HCT116 cells after 48 hr by SRB assay; conditions: HCT-116, 48 h, read-out: pGI50 (converted)
HCT-15 = assay: Cytotoxicity against Homo sapiens (human) HCT15 cells after 48 hr by SRB assay; conditions: HCT-15, 48 h, read-out: pGI50 (converted)
MCF7 = assay: Cytotoxicity against Homo sapiens (human) MCF7 cells after 48 hr by SRB assay; conditions: MCF7, 48 h, read-out: pGI50 (converted)

In the case of `O=c1[nH]cc(F)c(=O)[nH]1` [FLUOROURACIL], the GI50 (KM12) is reported as 10 µM, the GI50 (DU-145) is reported as 10 µM and the GI50 (786-0) is reported as 12.6 µM. For the same molecule, the GI50 (HCC 2998) was 1.58 µM, the GI50 (HOP-92) was 158 µM and the GI50 (OVCAR-5) was 158 µM. It also gave a GI50 (BT-549) of 100 µM, a GI50 (NCI-H23) of 12.6 µM and a GI50 (OVCAR-4) of 63.1 µM. It also gave a GI50 (UACC-257) of 100 µM, a GI50 (SF-268) of 50.1 µM and a GI50 (NCI-H460) of 1 µM. For the same molecule, the GI50 (SF-295) was 50.1 µM, the GI50 (RXF 393) was 50.1 µM and the GI50 (OVCAR-8) was 20 µM. It also gave a GI50 (SF-539) of 1.26 µM, a GI50 (HT-29) of 6.31 µM and a GI50 (MDA-MB-231) of 501 µM. It also gave a GI50 (SNB-19) of 126 µM, a GI50 (Malme-3M) of 20 µM and a GI50 (SK-OV-3) of 158 µM. It also gave a GI50 (Hs-578T) of 251 µM, a GI50 (K562) of 20 µM and a GI50 (CAKI-1) of 3.98 µM. The GI50 (A498) was 10 µM, the GI50 (NCI-H226) was 251 µM and the GI50 (PC-3) was 50.1 µM. The GI50 (EKVX) was 316 µM, the GI50 (IGROV-1) was 12.6 µM and the GI50 (SNB-75) was 200 µM. The GI50 (TK-10) was 126 µM, the GI50 (HCT-116) was 3.98 µM and the GI50 (HCT-15) was 6.31 µM. The GI50 (MCF7) was 1.58 µM.
